Measurements taken from patent US20070280957A1, “Change of the Load State of Mhc Molecules” (priority 2004, published 2007).
Blank lines part the entries; values can stand above or below the compound they belong to.

What was measured:
[1] = target: T1, soluble HLA-DR1 (DRA1*0101, DRB1*0101) (Homo sapiens, UniProt P01903+P01911, A100R/D57E/F55L/F60I/F76Y/I96L/L162R/M171V/P40L/Q125E/R42F/V115G/Y59C); test: Loading of empty soluble HLA-DR1 with biotinylated HA306-318 peptide, sandwich ELISA; assay type: biochemical
T1 construct: shortened α- and […]-chains without the cytoplasmatic and transmembrane portion of the MHC molecule; made in house; host or cells: S2 insect cells
Method: In order to monitor catalysis of the loading of HLA-DR molecules by compounds of formulae I, IA, II, III and IV1 to IV3, empty, soluble DR molecules were incubated with biotinylated, high-affinity peptide, and these were then detected in a sandwich ELISA for the MHC complexes.
All the batches were then adjusted to a final volume of 10 μl with 2% BSA-PO4^3− buffer (in the case of HLA-DR1 only with PO4^3− buffer). The reaction was started by incubation at 37° C. in a thermocycler. After 40 minutes, the incubation was terminated and the loading reaction was stopped by storage on ice and addition of 50 μl of ice-cold 1% BSA-PBS.
The detection of bound peptide was carried out by means of a sandwich ELISA. […] Between these steps, the plate was washed twice with PBS-0.05% Tween with the aid of a PW plate-washing device (Tecan Industries) and, before filling with fresh solution, all remaining liquid residues were removed by tapping on Scott®Natura paper towels (Hakle-Kimberly Deutschland GmbH). After blocking of non-specific binding sites, the plate was washed three times and filled with 50 μl/well of 1% BSA-PBS. 2×25 μl per reaction batch were transferred to the plate as double values and were carefully mixed thereon (total volume per well: 75 μl). From each filled series, a further 25 μl/well were then again titrated on the plate in a series of two-stage dilutions (final volume per well: 50 μl). The plates so filled were then stored for 2 hours at 4° C. under stationary conditions. Each plate was then washed six times as described above and filled with 80 μl/well of Eu^3+-streptavidin staining solution (europium-streptavidin stock solution diluted 1:10,000 with 1% BSA-PBS) and incubated for 30 minutes at room temperature (RT). After washing for a further eight times, 100 μl/well of fluorescence-activated solution (enhancer) were then added and the signal was measured by means of a Victor^2-multilabelcounter (Wallac Oy) at an excitation wavelength of 340 nm and an emission wavelength of 615 nm in time-resolving mode.
The following experiment was therefore carried out. One catalyst in a fixed concentration of 0.05 mM was introduced into each of a number of batches for loading HLA-DR1 with HA-biot. The same concentration of a second catalyst was then added to each batch. As controls, 1×1% DMSO was added and, as negative control, a reaction mixture was prepared with 2×1% DMSO. The reaction mixtures were then incubated for 40 minutes as already described and the load was measured in a sandwich ELISA.
The resulting load was then determined in an ELISA using biotinylated peptide (see FIG. 1).
The amount of peptide/MHC complexes formed within this time was then determined by means of an ELISA assay (capture antibody: anti-HLA-DR; detection: fluorescent-labelled streptavidin). The activities of the individual compounds were grouped on the basis of the dose/activity curves obtained thereby.

HLA-DR1 (DRB1*0101) = target: T2, HLA-DR1 (DRB1*0101) (Homo sapiens, UniProt P01903+P01911, A100R/D57E/F55L/F60I/F76Y/I96L/L162R/M171V/P40L/Q125E/R42F/V115G/Y59C); test: HLA-DR1-restricted T-cell response after catalysed loading of 721.221 cells (EvHA/X5, hCII19.3 T-cells); assay type: cell-based; details: for catalytic activity on HLA-DR1, dose-activity curves of T-cell stimulation: HA306-318 on 721.221 cells, EvHA/X5 T-cells
T2 construct: HLA-DR-expressing 721.221 cells; endogenous in cells; host or cells: 721.221 cells
Description: In the present comparison test, the enhancement of the T-cell response by catalysis of the loading of HLA-expressing cells was investigated. […] Either HA306-318 (see also FIG. 3, left-hand panel) or CO260-273 (see also FIG. 3, right-hand panel) was used as peptide antigen. After the loading, the cells were washed and used to stimulate EvHA/X5 and hCII19.3 cells, respectively.
In order to investigate the catalysis of a HLA-DR1 (DRB1*0101)-restricted T-cell response by various catalytically active adamantyl compounds, dose-activity curves of the catalysis of a HLA-DR1 (DRB1*0101)-restricted T-cell response were prepared. The experiment was carried out analogously to Comparison Experiment 3.3, the peptide antigen HA306-318 being loaded onto 721.221 cells in order thereby to stimulate EvHA/X5 T-cells. […] Because the position of the dose-activity curves is evidently also determined by the side chain, a modulating activity can be attributed thereto.

[2] = target: T3, HLA-DR1 (DRB1*0101) on L57.23 cells (Homo sapiens, UniProt P01903+P01911, A100R/D57E/F55L/F60I/F76Y/I96L/L162R/M171V/P40L/Q125E/R42F/V115G/Y59C); test: Loading of HLA-DR1 on the cell surface of fibroblast cells with biotinylated peptide, flow cytometry; assay type: cell-based; details: 4 hours, 37° C., active at markedly less than a tenth of the pCP concentration
T3 construct: expressed in transfected cells; host or cells: L57.23 fibroblast cells
Method: (§1) The catalytic properties of found substances on the loading of MHC class II molecules located on cells was determined in cell loading experiments. To this end, from 50,000 to 100,000 cells in 50 μl of DMEM were mixed with 50 μl of 24 μM HA-biot. dissolved in DMEM and 50 μl of catalyst solution (different concentrations dissolved in DMEM with a maximum DMSO content of 3%) and incubated for 4 hours at 37° C. and 10% CO2. As controls, only 50 μl of peptide solution and 50 μl of DMEM were added to cells in several batches. At the end of the incubation time, the cells were centrifuged off for 5 minutes at 1300 rpm, and supernatant medium was removed. […] After removal of the supernatant, the cell pellets were again detached and taken up in 50 μl/well of streptavidin-phycoerythrin solution (SA-PE stock solution (1 mg/ml) diluted 1:200 with 2% FCS-PBS). Staining was carried out for 30 minutes at 4° C. with the exclusion of light, in order to avoid excessive decomposition of the fluorescent dyes. […] The cells were then analysed using a continuous-flow cytometer. […]

[3] = target: T4, HLA-DR4 (DRB1*0401) on L243.6 cells (Homo sapiens, UniProt P01903+P01911, A100K/A169T/F76Y/I96L/K127E/L162R/M171V/N62H/P40V/Q125Y/R42H/S133A/S149N/S66Y/V115G/V209L/W38E); test: Loading of HLA-DR4 on the cell surface of fibroblast cells with biotinylated peptide, flow cytometry; assay type: cell-based; details: 4 hours, 37° C., active at markedly less than a tenth of the pCP concentration
T4 construct: expressed in transfected cells; host or cells: L243.6 fibroblast cells
Method: as §1

[4] = target: T5, empty, soluble HLA-DR1 complexes (Homo sapiens, UniProt P01903+P01911, A100R/D57E/F55L/F60I/F76Y/I96L/L162R/M171V/P40L/Q125E/R42F/V115G/Y59C); test: High-throughput HLA-DR1 loading test of the substance library and validation of hits; assay type: biochemical; details: final concentration of 0.4 mM
T5 construct: shortened α- and […]-chains without the cytoplasmatic and transmembrane portion of the MHC molecule; made in house; host or cells: S2 insect cells
Method: The compounds of formulae I, IA, II, III and IV1 to IV3 to be tested were supplied in 384-well plates in the form of a 160 mM starting library, dissolved in DMSO, from which an aliquot library had to be prepared. By manually removing 2 μl/well and diluting with 38 μl/well of DMSO, a 8 mM stock library was prepared, which was used for all further tests. In order to analyse the compounds of formulae I, IA, II, III and IV1 to IV3 that were present for their effect on MHC class II molecules, a high-throughput method based on a HLA-DR1 loading test was used. To this end, two 384-well Nunc-Maxisorp plates (ELISA plates) per library plate were coated overnight at 4° C. with 60 μl/well of monoclonal anti-HLA-DR antibody (L243 stock solution (1 mg/ml) diluted 1:500 in 100 mM NaHCO3). The plates were then washed three times by immersion in PBS-0.05% Tween solution and removal of air bubbles by tapping the plate against the wall of the washing vessel. Remaining washing solution was removed by beating the plates on paper towels, and 80 μl/well of 2% BSA-PBS were introduced. Non-specific binding was to be prevented by incubation at 37° C. for at least one hour. […] Excess staining solution was then removed by washing eight times with PBS-0.05% Tween, and 80 μl/well of fluorescence-activated solution (enhancer) were added manually by means of a pipette. […]

[5] = target: T6, soluble HLA-DR1 (DRB1*0101) (Homo sapiens, UniProt P01903+P01911, A100R/D57E/F55L/F60I/F76Y/I96L/L162R/M171V/P40L/Q125E/R42F/V115G/Y59C); test: MHC loading assay for identifying immunotoxic compounds (4 hours, ELISA); assay type: biochemical; details: biotinylated HA306-318
T6 construct: shortened α- and […]-chains without the cytoplasmatic and transmembrane portion of the MHC molecule; made in house; host or cells: S2 insect cells

MHC class II = details: prior-art small molecules with H-donor properties; cited from earlier work

Compound: Oc1ccccc1-c1ccccc1 [2-HBP]
- relative increase in the load, amount doubled ([1]; 0.05 mM + same concentration of the same catalyst): increases
- relative increase in the load ([1]; 0.05 mM catalyst + 1% DMSO, 40 minutes): about 10%

Compound: COc1ccc2c(c1)OCC2=NO [#3651, 6-methoxybenzofuran-3(2H)-one-oxime]
- catalytic activity on HLA-DR1, dose-activity curves of T-cell stimulation (HLA-DR1 (DRB1*0101)): weaker but still exhibits higher activity than pCP

Compound: CC(C)(O)C1CCC2(C)C(C1)C2(Cl)Cl (stereo not drawn) [#4230, 2-(7,7-dichloro-6-methyl-bicyclo[4.1.0]heptan-3-yl)-propan-2-ol]
- catalytic activity on HLA-DR1, dose-activity curves of T-cell stimulation (HLA-DR1 (DRB1*0101)): corresponds approximately to that of adamantylethanol

- immune response of HLA-DR1-restricted T-cells (HLA-DR1 (DRB1*0101); HA306-318 (EvHA/X5) or CO260-273 (hCII19.3) loaded onto 721.221 cells): markedly enhanced
- loading of cells with HA306-318, dose-activity curves compared with pCP [2]: substantially more active than pCP
- loading of cells with HA306-318, dose-activity curves compared with pCP [3]: substantially more active than pCP
Compound: NNC(=O)c1cc(C23CC4CC(CC(C4)C2)C3)n[nH]1 [AdCaPy, 3-(1-adamantyl)-5-carbohydrazide pyrazole]

Compound: Oc1cc(Cl)c(Cl)cc1O [DCC, 1,2-dichloro-4,5-dihydroxybenzene, reference compound]
- load signal (threshold value of library analysis) [4]: 15,000 counted events
- catalytic activity of phenol/aniline compounds, comparison of dose-activity curves ([1]; accelerated loading of soluble HLA-DR1 with HA306-318, compared with pCP): slightly increased activity

Compound: OCC(O)CNc1ccccc1 (stereo not drawn) [III 36, 3-N-phenylaminopropanediol]
- acceleration of the loading of MHC molecules with peptide ligands [5]: able to accelerate the loading of MHC molecules with peptide ligands
- activity compared with pCP [5]: markedly lower than that of pCP

Compound: CCCO [n-propanol]
- concentration required for use (MHC class II): over 200 mM

Compound: Oc1ccccc1 [phenol]
- concentration required for use (MHC class II): 30 mM

- catalytic activity in the ELISA [1]: similarly good results as AdaEtOH
Compound: dichlorophenylhydroxyiminoacetamide [DPHIA]
- toxicity (L57.23 cells): even lower toxic effects than AdaEtOH or 4-HBP
